Measured values published in patent publication US9505749B2, “Quinazolinone compounds and derivatives thereof” (AMGEN INC., priority 2012, dated 2016).
Like-named read-outs stand apart in the source and are kept apart here.

Assays:
[1] = molecular target: PARP1 (Homo sapiens (Human), UniProt P09874); assay: PARP1 biochemical assay (Trevigen kit)
Source text: PARP1 biochemical assay was purchased as a kit from Trevigen (cat.#4676-096-K) and used per manufacturers recommendations.

[2] = molecular target: 6×HIS-tankyrase 2 (946-1162) (Homo sapiens (Human), UniProt Q9H2K2); assay: Tankyrase 2 biochemical assay (AlphaLisa, PARsylation); conditions: 250 nM NAD; read-out: TNKS2 IC50
[3] = system: Axin2 accumulation in SW480 cells; assay: Axin2 384 immunofluorescence assay; format: cell-based; conditions: Homo sapiens, read-out: Axin2 384 IF EC50
[4] = molecular target: 6×HIS-tankyrase1 (1091-1325) (Homo sapiens (Human), UniProt O95271); assay: Tankyrase 1 biochemical assay (AlphaLisa, PARsylation); conditions: read-out: TNKS1 IC50
[5] = molecular target: PARP2 (Homo sapiens (Human), UniProt Q9UGN5); assay: PARP2 biochemical assay (BPS kit)
[6] = system: total β-catenin in SW480 colorectal cells; assay: Total β-catenin MSD 96-well plate assay for SW480 cells; conditions: Homo sapiens, SW480, read-out: SW480-Total beta-catenin (TBC) IC50 IP

Sequence of 6×HIS-tankyrase 2 (946-1162) (Q9H2K2 946-1162): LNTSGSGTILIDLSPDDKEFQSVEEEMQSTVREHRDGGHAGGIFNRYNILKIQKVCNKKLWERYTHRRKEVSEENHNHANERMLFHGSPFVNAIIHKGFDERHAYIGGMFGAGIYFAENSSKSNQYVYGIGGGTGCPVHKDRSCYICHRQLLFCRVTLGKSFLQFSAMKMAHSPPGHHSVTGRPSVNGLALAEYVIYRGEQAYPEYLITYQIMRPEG
Sequence of 6×HIS-tankyrase1 (1091-1325) (O95271 1091-1325): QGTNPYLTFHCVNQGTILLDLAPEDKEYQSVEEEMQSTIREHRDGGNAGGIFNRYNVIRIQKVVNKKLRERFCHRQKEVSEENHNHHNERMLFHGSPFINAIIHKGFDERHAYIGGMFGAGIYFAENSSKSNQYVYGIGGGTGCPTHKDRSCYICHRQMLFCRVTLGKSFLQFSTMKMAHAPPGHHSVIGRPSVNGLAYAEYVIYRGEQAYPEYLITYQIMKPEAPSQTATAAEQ
Sequence of PARP1 (P09874 whole entry): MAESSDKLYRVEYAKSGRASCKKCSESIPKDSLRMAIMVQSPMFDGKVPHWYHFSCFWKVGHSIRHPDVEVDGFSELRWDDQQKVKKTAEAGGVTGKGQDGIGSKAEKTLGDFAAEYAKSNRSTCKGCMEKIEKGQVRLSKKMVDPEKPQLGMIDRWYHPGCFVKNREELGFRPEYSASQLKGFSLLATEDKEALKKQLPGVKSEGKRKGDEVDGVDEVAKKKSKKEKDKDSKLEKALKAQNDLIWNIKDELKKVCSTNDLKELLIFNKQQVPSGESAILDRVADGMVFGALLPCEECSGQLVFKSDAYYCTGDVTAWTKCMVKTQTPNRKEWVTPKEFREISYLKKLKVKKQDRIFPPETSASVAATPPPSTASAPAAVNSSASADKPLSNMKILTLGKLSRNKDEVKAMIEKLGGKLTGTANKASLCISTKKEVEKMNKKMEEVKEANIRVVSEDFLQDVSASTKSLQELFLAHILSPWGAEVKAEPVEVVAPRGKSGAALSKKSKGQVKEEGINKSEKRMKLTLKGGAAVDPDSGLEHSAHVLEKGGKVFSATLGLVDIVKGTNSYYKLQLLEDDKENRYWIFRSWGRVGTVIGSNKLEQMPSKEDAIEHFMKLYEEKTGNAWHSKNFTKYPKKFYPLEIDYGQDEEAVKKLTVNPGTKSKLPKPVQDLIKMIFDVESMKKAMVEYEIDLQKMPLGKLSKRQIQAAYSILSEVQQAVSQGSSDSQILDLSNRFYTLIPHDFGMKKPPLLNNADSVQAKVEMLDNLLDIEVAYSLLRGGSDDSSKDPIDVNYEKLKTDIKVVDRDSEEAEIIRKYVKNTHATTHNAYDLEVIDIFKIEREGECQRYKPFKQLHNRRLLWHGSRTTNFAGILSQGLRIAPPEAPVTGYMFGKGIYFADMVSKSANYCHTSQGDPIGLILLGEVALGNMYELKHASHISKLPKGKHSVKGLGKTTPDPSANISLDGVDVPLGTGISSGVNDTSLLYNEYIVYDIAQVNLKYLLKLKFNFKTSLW
Sequence of PARP2 (Q9UGN5 whole entry): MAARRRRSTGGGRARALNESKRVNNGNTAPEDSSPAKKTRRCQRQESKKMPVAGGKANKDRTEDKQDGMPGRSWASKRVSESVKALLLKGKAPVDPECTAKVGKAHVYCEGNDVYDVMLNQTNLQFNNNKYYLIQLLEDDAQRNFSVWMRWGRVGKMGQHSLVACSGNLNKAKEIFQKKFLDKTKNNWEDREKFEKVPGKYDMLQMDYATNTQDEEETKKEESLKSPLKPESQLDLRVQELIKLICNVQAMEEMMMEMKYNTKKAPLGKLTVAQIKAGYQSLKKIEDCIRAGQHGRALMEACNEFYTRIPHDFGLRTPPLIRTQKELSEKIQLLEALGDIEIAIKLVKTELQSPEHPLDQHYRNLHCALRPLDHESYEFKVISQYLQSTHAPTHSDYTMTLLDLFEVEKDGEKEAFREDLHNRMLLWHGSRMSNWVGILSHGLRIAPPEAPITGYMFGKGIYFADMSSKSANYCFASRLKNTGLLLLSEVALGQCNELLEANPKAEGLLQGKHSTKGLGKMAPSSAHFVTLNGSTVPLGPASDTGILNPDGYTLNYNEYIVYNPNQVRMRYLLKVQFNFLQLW

SMILES | IC50 [1] | IC50 [2] | EC50 ([3]; SW480 cells, 24 hours) | IC50 ([4]; 400 nM NAD, 60 minutes at RT) | IC50 [5] | IC50 [6] | EC50 ([3]; SW480, 24 h) | IC50 [4]
O=C(CCCc1nc2ccccc2c(=O)[nH]1)N[C@H]1CC[C@H](Oc2ccncc2)CC1 [Example 70, 4-(4-oxo-3,4-dihydro-2-quinazolinyl)-N-(trans-4-(4-pyridinyloxyl)cyclohexyl)butanamide] | 723 nM | 0.826 nM | 191 nM | 5.1 nM | 1810 nM | 252 nM |  | 
O=C(CCCc1nc2ccccc2c(=O)[nH]1)N1CCC(N2C(=O)C(F)(F)c3ccccc32)CC1 [Example 60, 2-(4-(4-(3,3-difluoro-2-oxo-2,3-dihydro-1H-indol-1-yl)-1-piperidinyl)-4-oxobutyl)-4(3H)-quinazolinone] | 4530 nM | 28.9 nM |  |  |  |  | 2410 nM | 46 nM
Cn1c(=O)n(C2CCN(C(=O)CCCc3nc4ccccc4c(=O)[nH]3)CC2)c2ccc(Cl)cc21 [Example 45, 2-(4-(4-(5-chloro-3-methyl-2-oxo-2,3-dihydro-1H-benzimidazol-1-yl)-1-piperidinyl)-4-oxobutyl)-4(3H)-quinazolinone] |  | 52.5 nM | 4630 nM | 73.7 nM | 1020 nM | 2340 nM |  | 
O=C(CCCc1nc2ccccc2c(=O)[nH]1)N[C@H]1CC[C@H](c2ncc(-c3ccccc3)o2)CC1 [Example 95, 4-(4-oxo-3,4-dihydro-2-quinazolinyl)-N-(trans-4-(5-phenyl-1,3-oxazol-2-yl)cyclohexyl)butanamide] | 1930 nM | 0.16 nM |  | 0.0979 nM | 1070 nM | 4.83 nM |  | 
O=C(CCSc1nc2ccccc2c(=O)[nH]1)N1CCC(n2c(=O)[nH]c3cc(Cl)ccc32)CC1 [Example 82, 2-((3-(4-(5-chloro-2-oxo-2,3-dihydro-1H-benzo[d]imidazol-1-yl)piperidin-1-yl)-3-oxopropyl)thio)quinazolin-4(3H)-one] | 1470 nM | 73.7 nM |  | 128 nM | 99.4 nM | 3310 nM |  | 
O=C(CCSc1nc2ccc(F)cc2c(=O)[nH]1)N[C@H]1CC[C@H](c2nnc(-c3ccccc3)o2)CC1 [Example 145, 3-((6-fluoro-4-oxo-3,4-dihydro-2-quinazolinyl)sulfanyl)-N-(trans-4-(5-phenyl-1,3,4-oxadiazol-2-yl)cyclohexyl)propanamide] | 3540 nM | 5.02 nM |  | 0.148 nM | 1120 nM | 7.66 nM |  | 
O=C(CCc1nc2ccccc2c(=O)[nH]1)N[C@H]1CC[C@H](n2c(=O)[nH]c3ccccc32)CC1 [Example 84, N-(trans-4-(2-oxo-2,3-dihydro-1H-benzo[d]imidazol-1-yl)cyclohexyl)-3-(4-oxo-3,4-dihydroquinazolin-2-yl)propanamide] |  | 0.671 nM | 1780 nM | 1.44 nM | 1030 nM | 433 nM |  | 
O=C(CCSc1cc(=O)n2ccccc2n1)N[C@H]1CC[C@H](c2nnc(-c3ccccc3)o2)CC1 [Example 144, 3-((4-oxo-4H-pyrido[1,2-a]pyrimidin-2-yl)sulfanyl)-N-(trans-4-(5-phenyl-1,3,4-oxadiazol-2-yl)cyclohexyl)propanamide] | > 85000 nM | 5.46 nM |  | 4.78 nM | > 170000 nM | 349 nM |  | 
O=C(CSc1nc2ccccc2c(=O)[nH]1)N[C@H]1CC[C@H](n2c(=O)[nH]c3cc(Cl)ccc32)CC1 [Example 87, N-((1r,4r)-4-(5-chloro-2-oxo-2,3-dihydro-1H-benzo[d]imidazol-1-yl)cyclohexyl)-2-((4-oxo-3,4-dihydroquinazolin-2-yl)thio)acetamide] | > 85000 nM | 2.52 nM | 25.8 nM | 0.0597 nM |  | 7.27 nM |  | 
Cc1cc(=O)[nH]c(SCCC(=O)N[C@H]2CC[C@H](c3nnc(-c4ccccc4)o3)CC2)n1 [Example 37, 3-((4-methyl-6-oxo-1,6-dihydropyrimidin-2-yl)thio)-N-((1r,4r)-4-(5-phenyl-1,3,4-oxadiazol-2-yl)cyclohexyl)propanamide] | > 85000 nM | 3.48 nM |  | 3.7 nM | > 170000 nM | 738 nM |  | 
O=C(CCCc1nc2ccccc2c(=O)[nH]1)N[C@H]1CC[C@H](OCc2ccccc2)C1 (stereo in doubt) [Example 62, N-((1R,3R)-3-(benzyloxy)cyclopentyl)-4-(4-oxo-3,4-dihydroquinazolin-2-yl)butanamide+N-((1S,3S)-3-(benzyloxy)cyclopentyl)-4-(4-oxo-3,4-dihydroquinazolin-2-yl)butanamide] | 7680 nM | 138 nM |  | 587 nM | 2840 nM | > 10000 nM |  | 

More lines, main results first:

IC50 [1] | IC50 [2] | EC50 ([3]; SW480 cells, 24 hours) | IC50 ([4]; 400 nM NAD, 60 minutes at RT) | IC50 [5] | IC50 [6] | SMILES | EC50 ([3]; SW480, 24 h) | IC50 [4]
4430 nM | 18.1 nM | 1.98 nM | 0.0724 nM | 6780 nM | 1.1 nM | COc1ccc(-c2nnc([C@H]3CC[C@H](NC(=O)CCSc4nc5ccccc5c(=O)[nH]4)CC3)o2)cc1 [Example 121, N-((1r,4r)-4-(5-(4-methoxyphenyl)-1,3,4-oxadiazol-2-yl)cyclohexyl)-3-((4-oxo-3,4-dihydroquinazolin-2-yl)thio)propanamide] |  | 
1060 nM | 0.191 nM | 13.9 nM | 0.567 nM | 1270 nM | 10.6 nM | COc1ccc(-c2nnc([C@H]3CC[C@H](NC(=O)CCCc4nc5ccccc5c(=O)[nH]4)CC3)o2)cc1 [Example 30, N-(trans-4-(5-(4-methoxyphenyl)-1,3,4-oxadiazol-2-yl)cyclohexyl)-4-(4-oxo-3,4-dihydro-2-quinazolinyl)butanamide] |  | 
1230 nM | 6.3 nM |  | 12.1 nM | 89.5 nM | 2220 nM | O=C(CCSc1nc2ccccc2c(=O)[nH]1)N1CCN(c2n[nH]c3ccccc23)CC1 [Example 94, 2-((3-(4-(1H-indazol-3-yl)-1-piperazinyl)-3-oxopropyl)sulfanyl)-4(3H)-quinazolinone] |  | 
2050 nM | 4.01 nM | 4780 nM | 17.7 nM |  | 1360 nM | O=C(CCCc1nc2ccccc2c(=O)[nH]1)N1CC=C(n2c(=O)[nH]c3ccccc32)CC1 [Example 46, 2-(4-oxo-4-(4-(2-oxo-2,3-dihydro-1H-benzimidazol-1-yl)-3,6-dihydro-1(2H)-pyridinyl)butyl)-4(3H)-quinazolinone trifluoroacetic acid] |  | 
 | 0.196 nM | 10.8 nM | 0.277 nM | 923 nM | 19.7 nM | O=C(CCCc1nc2ccccc2c(=O)[nH]1)N[C@H]1CC[C@H](c2nnc(-c3ccc(F)c(Cl)c3)o2)CC1 [Example 35, N-(trans-4-(5-(3-chloro-4-fluorophenyl)-1,3,4-oxadiazol-2-yl)cyclohexyl)-4-(4-oxo-3,4-dihydro-2-quinazolinyl)butanamide 2,2,2-trifluoroacetate] |  | 
 | 9.92 nM | 198 nM | 0.129 nM | 2280 nM | 138 nM | N#Cc1ccc2c(c1)[nH]c(=O)n2[C@H]1CC[C@H](NC(=O)CSc2nc3ccccc3c(=O)[nH]2)CC1 [Example 103, N-((1r,4r)-4-(5-cyano-2-oxo-2,3-dihydro-1H-benzo[d]imidazol-1-yl)cyclohexyl)-2-((4-oxo-3,4-dihydroquinazolin-2-yl)thio)acetamide] |  | 
 | 4.98 nM | 3.34 nM | 0.107 nM | 3280 nM | 1.2 nM | O=C(CCSc1nc2ccccc2c(=O)[nH]1)N[C@H]1CC[C@H](c2nnc(-c3cccc(Cl)c3)o2)CC1 [Example 118, N-((1r,4r)-4-(5-(3-chlorophenyl)-1,3,4-oxadiazol-2-yl)cyclohexyl)-3-((4-oxo-3,4-dihydroquinazolin-2-yl)thio)propanamide] |  | 
 | 5.35 nM | 2.33 nM | 0.0647 nM | 3730 nM | 2.03 nM | COc1cccc(-c2nnc([C@H]3CC[C@H](NC(=O)CCSc4nc5ccccc5c(=O)[nH]4)CC3)o2)c1 [Example 120, N-((1r,4r)-4-(5-(3-methoxyphenyl)-1,3,4-oxadiazol-2-yl)cyclohexyl)-3-((4-oxo-3,4-dihydroquinazolin-2-yl)thio)propanamide] |  | 
 | 22.5 nM | 1390 nM | 66.6 nM | 3220 nM | 142 nM | O=c1[nH]c(CCNC(=O)[C@H]2CC[C@H](c3nnc(-c4ccccc4)o3)CC2)nc2ccccc12 [Example 1, trans-N-(2-(4-oxo-3,4-dihydro-2-quinazolinyl)ethyl)-4-(5-phenyl-1,3,4-oxadiazol-2-yl)cyclohexanecarboxamide] |  | 
 | 99.8 nM | 1820 nM | 217 nM | 4680 nM | 741 nM | N#Cc1cccc(-c2nnc([C@H]3CC[C@H](NC(=O)CCc4nc5ccccc5c(=O)[nH]4)CC3)o2)c1 [Example 137, N-((1r,4r)-4-(5-(3-cyanophenyl)-1,3,4-oxadiazol-2-yl)cyclohexyl)-3-(4-oxo-3,4-dihydroquinazolin-2-yl)propanamide] |  | 
 | 0.796 nM | 3.42 nM | 0.127 nM | 720 nM | 7.84 nM | O=C(CCSc1nc2ccccc2c(=O)[nH]1)N[C@H]1CC[C@H](n2c(=O)[nH]c3cc(Cl)ccc32)CC1 [Example 90, N-((1r,4r)-4-(5-chloro-2-oxo-2,3-dihydro-1H-benzo[d]imidazol-1-yl)cyclohexyl)-3-((4-oxo-3,4-dihydroquinazolin-2-yl)thio)propanamide] |  | 
